# Test results from patent US11000033B2, “Ketone or oxime compound, and herbicide” (NISSAN CHEMICAL CORPORATION, priority 2014, dated 2021).
# Key:
# [1] = system: Echinochloa crus-galli var. crus-galli; test: Test Example 3: herbicidal effect by foliage application, Wagner pot (symbol H); format: in vivo; settings: application herbicide amount 320 g/ha
# Outline: (§1)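 Rating at 3 weeks post-spray, by defined criteria. Treatment: emulsion diluted with water to a predetermined amount, applied evenly to foliage of 14-day-old plants raised in alluvial soil flooded 0.1–0.5 cm deep at 25–30 °C, rice co-sown.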
# [2] = system: Leptochloa chinensis; test: Test Example 3: herbicidal effect by foliage application, Wagner pot (symbol D); format: in vivo; settings: application herbicide amount 320 g/ha
# Outline: as §1
# [3] = system: Cyperus difformis; test: Test Example 3: herbicidal effect by foliage application, Wagner pot (symbol E); format: in vivo; settings: application herbicide amount 320 g/ha
# Outline: as §1
# [4] = system: directly sowed rice plant; test: Test Example 3: effect on crop by foliage application, Wagner pot (symbol b); format: in vivo; settings: application herbicide amount 320 g/ha
# Outline: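 Greenhouse culture at 25–30 °C of seeded rice, Cyperus difformis, Leptochloa chinensis and Echinochloa crus-galli var. crus-galli, in alluvial soil held under 0.1–0.5 cm of water in a Wagner pot.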
# [5] = system: Digitaria ciliaris; test: Test Example 5: herbicidal effect by foliage application, plastic box (symbol F); format: in vivo; settings: 320 g/ha, 3 weeks after application
# Outline: (§2)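 Herbicide, formulated as an emulsion and diluted in water, is sprayed onto the aerial parts of 14-day seedlings. These were grown at 25° C. to 30° C. in sterilized diluvial soil; effects are graded after 3 weeks.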
# [6] = system: Setaria viridis; test: Test Example 5: herbicidal effect by foliage application, plastic box (symbol G); format: in vivo; settings: 320 g/ha, 3 weeks after application
# Outline: as §2
# [7] = system: Echinochloa crus-galli var. crus-galli; test: Test Example 5: herbicidal effect by foliage application, plastic box (symbol H); format: in vivo; settings: 320 g/ha, 3 weeks after application
# Outline: as §2
# [8] = system: Avena fatua; test: Test Example 5: herbicidal effect by foliage application, plastic box (symbol I); format: in vivo; settings: 320 g/ha, 3 weeks after application
# Outline: as §2
# [9] = system: Alopecurus myosuroides; test: Test Example 5: herbicidal effect by foliage application, plastic box (symbol J); format: in vivo; settings: 320 g/ha, 3 weeks after application
# Outline: as §2
# [10] = system: Lolium multiflorum Lam.; test: Test Example 5: herbicidal effect by foliage application, plastic box (symbol K); format: in vivo; settings: 320 g/ha, 3 weeks after application
# Outline: as §2
# [11] = system: Apera spica-venti; test: Test Example 5: herbicidal effect by foliage application, plastic box (symbol L); format: in vivo; settings: 320 g/ha, 3 weeks after application
# Outline: as §2
# [12] = system: Abutilon theophrasti; test: Test Example 5: herbicidal effect by foliage application, plastic box (symbol M); format: in vivo; settings: 320 g/ha, 3 weeks after application
# Outline: as §2
# [13] = system: Amaranthus retroflexus; test: Test Example 5: herbicidal effect by foliage application, plastic box (symbol N); format: in vivo; settings: 320 g/ha, 3 weeks after application
# Outline: as §2
# [14] = system: Chenopodium album; test: Test Example 5: herbicidal effect by foliage application, plastic box (symbol O); format: in vivo; settings: 320 g/ha, 3 weeks after application
# Outline: as §2
# [15] = system: Stellaria media; test: Test Example 5: herbicidal effect by foliage application, plastic box (symbol P); format: in vivo; settings: 320 g/ha, 3 weeks after application
# Outline: as §2
# [16] = system: Galium spurium; test: Test Example 5: herbicidal effect by foliage application, plastic box (symbol Q); format: in vivo; settings: 320 g/ha, 3 weeks after application
# Outline: as §2
# [17] = system: Veronica persica; test: Test Example 5: herbicidal effect by foliage application, plastic box (symbol R); format: in vivo; settings: 320 g/ha, 3 weeks after application
# Outline: as §2
# [18] = system: corn; test: Test Example 5: effect on crop by foliage application, plastic box (symbol c); format: in vivo; settings: 320 g/ha, 3 weeks after application
# Outline: (§3)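 Diluvial soil, sterilized and boxed (21 × 13 × 7 cm), received spot-sown seed covered by about 1.5 cm soil; plants were then greenhouse-grown at 25–30° C.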
# [19] = system: soybean; test: Test Example 5: effect on crop by foliage application, plastic box (symbol d); format: in vivo; settings: 320 g/ha, 3 weeks after application
# Outline: as §3
# [20] = system: rice plant; test: Test Example 5: effect on crop by foliage application, plastic box (symbol b); format: in vivo; settings: 320 g/ha, 3 weeks after application
# Outline: as §3
# [21] = system: wheat; test: Test Example 5: effect on crop by foliage application, plastic box (symbol e); format: in vivo; settings: 320 g/ha, 3 weeks after application
# Outline: as §3
# [22] = system: beet; test: Test Example 5: effect on crop by foliage application, plastic box (symbol f); format: in vivo; settings: 320 g/ha, 3 weeks after application
# Outline: as §3
# [23] = system: rapeseed; test: Test Example 5: effect on crop by foliage application, plastic box (symbol g); format: in vivo; settings: 320 g/ha, 3 weeks after application
# Outline: as §3
structure (smiles),measurement,setting,value
CON=C(C)CC1CC(O)=C(c2c(C)cc(C#N)cc2C)C1=O (stereo not drawn) [6-027],"herbicidal effect on H (Echinochloa crus-galli var. crus-galli), grade 0-5",[1],2 (Herbicidal ratio of 20% or higher and lower than 40%)
same,"herbicidal effect on D (Leptochloa chinensis), grade 0-5",[2],3 (Herbicidal ratio of 40% or higher and lower than 70%)
same,"herbicidal effect on E, grade 0-5",[3],0 (Herbicidal ratio of 5% or lower (almost no effect))
same,"effect on crop b (directly sowed rice plant), grade 0-5",[4],0 (Herbicidal ratio of 5% or lower (almost no effect))
same,"F: Digitaria ciliaris, herbicidal effect grade",[5],3 (Herbicidal ratio of 40% or higher and lower than 70%)
same,"G: Setaria viridis, herbicidal effect grade",[6],4 (Herbicidal ratio of 70% or higher and lower than 90%)
same,"H: Echinochloa crus-galli var. crus-galli, herbicidal effect grade",[7],4 (Herbicidal ratio of 70% or higher and lower than 90%)
same,"I: Avena fatua, herbicidal effect grade",[8],1 (Herbicidal ratio of 5% or higher and lower than 20%)
same,"J: Alopecurus myosuroides, herbicidal effect grade",[9],0 (Herbicidal ratio of 5% or lower (almost no effect))
same,"K: Lolium multiflorum Lam., herbicidal effect grade",[10],0 (Herbicidal ratio of 5% or lower (almost no effect))
same,"L: Apera spica-venti, herbicidal effect grade",[11],0 (Herbicidal ratio of 5% or lower (almost no effect))
same,"M: Abutilon theophrasti, herbicidal effect grade",[12],0 (Herbicidal ratio of 5% or lower (almost no effect))
same,"N: Amaranthus retroflexus, herbicidal effect grade",[13],0 (Herbicidal ratio of 5% or lower (almost no effect))
same,"O: Chenopodium album, herbicidal effect grade",[14],0 (Herbicidal ratio of 5% or lower (almost no effect))
same,"P: Stellaria media, herbicidal effect grade",[15],0 (Herbicidal ratio of 5% or lower (almost no effect))
same,"Q: Galium spurium, herbicidal effect grade",[16],0 (Herbicidal ratio of 5% or lower (almost no effect))
same,"R: Veronica persica, herbicidal effect grade",[17],0 (Herbicidal ratio of 5% or lower (almost no effect))
same,"c: corn, effect on crop grade",[18],1 (Herbicidal ratio of 5% or higher and lower than 20%)
same,"d: soybean, effect on crop grade",[19],0 (Herbicidal ratio of 5% or lower (almost no effect))
same,"b: directly sowed rice plant, effect on crop grade",[20],1 (Herbicidal ratio of 5% or higher and lower than 20%)
same,"e: wheat, effect on crop grade",[21],0 (Herbicidal ratio of 5% or lower (almost no effect))
same,"f: beet, effect on crop grade",[22],0 (Herbicidal ratio of 5% or lower (almost no effect))
same,"g: rapeseed, effect on crop grade",[23],0 (Herbicidal ratio of 5% or lower (almost no effect))
same,melting point,,181 to 184 °C
